From PubChem BioAssay AID2060605 (Molecular Pharmacology Branch, DTP, NCI, 2025)

Tested on: 947758-054-R-J2-PDC spheroid growth, percent test/control
Experiment: Anticancer human tumor 947758-054-R-J2-PDC patient-derived colon adenocarcinoma cell line growth inhibition [CLK]
Conditions: spheroids with HUVEC and MSC; for IC50: curve of first compound; for viability, T/C: stronger effect = lower value
Method in brief: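 Patient-derived tumor cells grown as complex spheroids with HUVEC endothelial cells and mesenchymal stem cells, treated with drug combinations. Concentrations descend in half-log steps from near clinical Cmax, or from 10 microM if Cmax unknown.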

[1] = second compound 0.0316 µM, first compound 0.0316 µM
[2] = second compound 0.0316 µM, first compound 0.1 µM
[3] = second compound 0.0316 µM, first compound 0.316 µM
[4] = second compound 0.0316 µM, first compound 1 µM
[5] = second compound 0.0316 µM, first compound 3.16 µM
[6] = second compound 0.0316 µM, first compound 10 µM
[7] = second compound 0.1 µM, first compound 0.0316 µM
[8] = second compound 0.1 µM, first compound 0.1 µM
[9] = second compound 0.1 µM, first compound 0.316 µM
[10] = second compound 0.1 µM, first compound 1 µM
[11] = second compound 0.1 µM, first compound 3.16 µM
[12] = second compound 0.1 µM, first compound 10 µM
[13] = second compound 0.316 µM, first compound 0.0316 µM
[14] = second compound 0.316 µM, first compound 0.1 µM
[15] = second compound 0.316 µM, first compound 0.316 µM
[16] = second compound 0.316 µM, first compound 1 µM
[17] = second compound 0.316 µM, first compound 3.16 µM
[18] = second compound 0.316 µM, first compound 10 µM
[19] = second compound 1 µM, first compound 0.0316 µM
[20] = second compound 1 µM, first compound 0.1 µM
[21] = second compound 1 µM, first compound 0.316 µM
[22] = second compound 1 µM, first compound 1 µM
[23] = second compound 1 µM, first compound 3.16 µM
[24] = second compound 1 µM, first compound 10 µM
[25] = second compound 3.16 µM, first compound 0.0316 µM
[26] = second compound 3.16 µM, first compound 0.1 µM
[27] = second compound 3.16 µM, first compound 0.316 µM
[28] = second compound 3.16 µM, first compound 1 µM
[29] = second compound 3.16 µM, first compound 3.16 µM
[30] = second compound 3.16 µM, first compound 10 µM
[31] = second compound 10 µM, first compound 0.0316 µM
[32] = second compound 10 µM, first compound 0.1 µM
[33] = second compound 10 µM, first compound 0.316 µM
[34] = second compound 10 µM, first compound 1 µM
[35] = second compound 10 µM, first compound 3.16 µM
[36] = second compound 10 µM, first compound 10 µM
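Further: spheroids exposed to compounds for one week before readout.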
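Wherever viability, T/C is given: 100% = DMSO vehicle control wells.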

Nc1ccn(C2OC(CO)C(O)C2(F)F)c(=O)n1 (centres undefined) + CNC(=O)c1ccc(Nc2nc(OC3CCCC3)c3c(-c4ccc5nc(C)oc5c4)c[nH]c3n2)c(OC)c1
IC50 (second compound 0.0316 µM): < 31.6 nM
IC50 (second compound 0.1 µM): < 31.6 nM
IC50 (second compound 0.316 µM): < 31.6 nM
IC50 (second compound 1 µM): < 31.6 nM
IC50 (second compound 3.16 µM): < 31.6 nM
IC50 (second compound 10 µM): < 31.6 nM
viability, T/C [1]: 21.3%
viability, T/C [2]: 9.39%
viability, T/C [3]: 10.4%
viability, T/C [4]: 12.7%
viability, T/C [5]: 10.1%
viability, T/C [6]: 7.91%
viability, T/C [7]: 25.7%
viability, T/C [8]: 7.76%
viability, T/C [9]: 9.74%
viability, T/C [10]: 9.84%
viability, T/C [11]: 9.52%
viability, T/C [12]: 7.25%
viability, T/C [13]: 25.4%
viability, T/C [14]: 8.69%
viability, T/C [15]: 7.46%
viability, T/C [16]: 11.1%
viability, T/C [17]: 8.56%
viability, T/C [18]: 6.75%
viability, T/C [19]: 29.1%
viability, T/C [20]: 8.29%
viability, T/C [21]: 5.33%
viability, T/C [22]: 7.16%
viability, T/C [23]: 6.13%
viability, T/C [24]: 8.82%
viability, T/C [25]: 19.2%
viability, T/C [26]: 6.89%
viability, T/C [27]: 6.64%
viability, T/C [28]: 7.3%
viability, T/C [29]: 6.33%
viability, T/C [30]: 4.72%
viability, T/C [31]: 18.2%
viability, T/C [32]: 9.83%
viability, T/C [33]: 3.87%
viability, T/C [34]: 5.96%
viability, T/C [35]: 4.8%
viability, T/C [36]: 3.11%

O=c1[nH]cc(F)c(=O)[nH]1 + CNC(=O)c1ccc(Nc2nc(OC3CCCC3)c3c(-c4ccc5nc(C)oc5c4)c[nH]c3n2)c(OC)c1
IC50 (second compound 0.0316 µM): 969 nM
IC50 (second compound 0.1 µM): 892 nM
IC50 (second compound 0.316 µM): 557 nM
IC50 (second compound 1 µM): < 31.6 nM
IC50 (second compound 3.16 µM): < 31.6 nM
IC50 (second compound 10 µM): < 31.6 nM
viability, T/C [1]: 97.2%
viability, T/C [2]: 85.4%
viability, T/C [3]: 84.2%
viability, T/C [4]: 47.2%
viability, T/C [5]: 38.4%
viability, T/C [6]: 28%
viability, T/C [7]: 81.3%
viability, T/C [8]: 79.1%
viability, T/C [9]: 88%
viability, T/C [10]: 46.3%
viability, T/C [11]: 31%
viability, T/C [12]: 22%
viability, T/C [13]: 79.8%
viability, T/C [14]: 79.4%
viability, T/C [15]: 51.4%
viability, T/C [16]: 44.3%
viability, T/C [17]: 27.7%
viability, T/C [18]: 16.7%
viability, T/C [19]: 47.4%
viability, T/C [20]: 40.3%
viability, T/C [21]: 52.8%
viability, T/C [22]: 31.2%
viability, T/C [23]: 20.6%
viability, T/C [24]: 13.2%
viability, T/C [25]: 42.6%
viability, T/C [26]: 25%
viability, T/C [27]: 38.6%
viability, T/C [28]: 26.1%
viability, T/C [29]: 16.8%
viability, T/C [30]: 11.8%
viability, T/C [31]: 36.2%
viability, T/C [32]: 24.6%
viability, T/C [33]: 35.9%
viability, T/C [34]: 22.1%
viability, T/C [35]: 12.2%
viability, T/C [36]: 13.2%
